Tests used:
[1] = target: T1, GFP-CTH (mGFP-tagged C-terminal region of H-ras) in MDCK cells (Homo sapiens, UniProt P01112); experiment: High throughput cell-based screen: plasma membrane localization of GFP-CTH; design: species or system canine; details: positive control
T1 construct: hypervariable region of H-ras (amino acids 166-189) cloned onto the carboxy terminus of monomeric GFP; expressed in transfected cells

[2] = target: T2, GFP-CTK (mGFP-tagged C-terminal region of K-ras) in MDCK cells (Homo sapiens, UniProt P01116); experiment: High throughput cell-based screen: plasma membrane localization of GFP-CTK; design: species or system canine; details: positive control, 250 ng/mL UCN-01, MDCK
T2 construct: hypervariable region of K-ras (amino acids 166-188) cloned onto the carboxy terminus of GFP; expressed in transfected cells
Experimental: FIG. 1: Illustrates results of a high throughput cell-based screening of chemical libraries: Madin-Darby Canine Kidney epithelial cells (MDCK) expressing monomeric green fluorescent protein (mGFP)-tagged C-terminal region of K- or H-ras (GFP-CTK and GFP-CTH) were seeded in 96 well plates and treated with drug libraries for 48 h. Cells were then fixed with paraformaldehyde and imaged by BD Pathway Imager in confocal mode; shown are representative images of cells treated with vehicle, […], and 10 μM FTI-276; wherein experimentation was performed in accordance with principles described herein;
In accordance with some embodiments described herein, wild type MDCK cells or MDCK cells expressing monomeric green fluorescent protein (mGFP)-tagged C-terminal region of K-ras or H-ras (GFP-CTK and GFP-CTH respectively) were seeded in triplicate in 96 well plates (Matrical) at a density of 30,000 cells/well and incubated for 24 h at 37° C. Compounds were individually added to test cells at a concentration of 4 μg/mL (concentration of DMSO 1%) and incubated for a further 48 h.
Cells were then fixed with 4% paraformaldehyde and stored in PBS at 4° C. until imaged. Plates were imaged using a BD Pathway High-Throughput Bioimager. Images were acquired by a 3×3 montage with 20× objective lens using GFP-confocal mode. […]

[3] = target: T3, GFP-K-rasG12V in MDCK or BHK cells (Homo sapiens, UniProt P01116, G12V); experiment: Cellular fractionation (P100/S100) with quantitative Western blotting, GFP-K-rasG12V; assay type: cell-based, canine (MDCK), hamster (BHK); details: 48 hours
T3 construct: MDCK and BHK cells expressing GFP-tagged full length constitutively active Ras (G12V) proteins; expressed in transfected cells
Experimental: Following treatment, membrane (P100) and soluble (S100) protein fractions were prepared and analyzed by quantitative Western blotting.
(§1) Preparation of whole-cell lysates: cells were lysed in Buffer B (50 mM Tris [pH 7.5], 75 mM NaCl, 25 mM NaF, 5 mM MgCl2, 5 mM EGTA, 1 mM dithiothreitol, 100 μM NaVO4, 1% Nonidet P-40 plus protease inhibitors). Cellular fractionation: cells were incubated in Buffer A (10 mm Tris-HCl, pH 7.5, 25 mm NaF, 5 mm MgCl2, 1 mm EGTA, 1 mm dithiothreitol, 100 μm NaVO4 plus protease inhibitors) for 30 minutes on ice and lysed by passing through a 27 G needle 30 times. The post nuclear supernatant was centrifuged at 100,000 g for 30 minutes and the membrane pellet was resuspended in Buffer A containing 1% Triton X-100.
(§2) SDS-PAGE and Western blotting with the specified antibody were performed using 20 μg of each whole cell lysate/P100 fraction and volumes of S100 equal to that of the corresponding P100. Signal was detected by enhanced chemiluminescence (SuperSignal; Pierce, Thermo Fisher Scientific, Rockford, Ill.) and imaged by FluorChemQ (Alpha Inotech, San Leandro, Calif., USA). Quantification of intensities was performed using FluorChemQ software.

[4] = system: K-Ras-transformed Hec1A cells; experiment: Proliferation assay (MTS), Hec-1a, fendiline versus U0126; details: 48 h, single dose of fendiline, U0126 renewed every 24 h
Experimental: The number of viable cells was quantified (absorbance at 490 nm) using the CellTiter 96 AQueous One Solution cell proliferation assay kit (Promega). […] Cell numbers were normalized to the corresponding vehicle-treated control. Statistical significance was calculated using Student's t test (*, P<0.05). […] Cell numbers were quantified using the CellTiter 96 AQueous One Solution cell proliferation assay (MTS) (Promega), according to the manufacturer's protocol.

[5] = system: CaCO-2 colon cancer cell line; experiment: Proliferation assay (MTS), CaCO-2; assay type: cell-based; details: 72 h; wild type K-Ras, overexpressed
Experimental: (§3) (A) A panel of wild-type (WT) or oncogenic mutant (Mut) K-Ras-expressing tumor cells were seeded in 96-well plates and treated for 72 h with vehicle (DMSO) or various concentrations of fendiline. […] The graphs show relative mean numbers of viable cells±SEMs from 3 independent experiments. Cell lines expressing oncogenic mutant K-Ras are shown in red, and cell lines that express wild-type K-Ras are shown in black. NCI H1299 cells (shown in blue) express wild-type K-Ras but mutant N-Ras. CaCO-2 cells (shown in green) overexpress wild-type K-Ras. (B) K-Ras levels in whole-cell lysates of SNU-C1, CaCO-2, and SK-CO-1 cells were quantified by Western blotting. The graphs show means±SEMs for 3 isolates of each cell line (indicated as 1, 2, and 3). K-Ras expression was normalized to the SNU-C1 sample.
(§4) After 24 h, fresh growth medium supplemented with 1% vehicle (DMSO), various concentrations of fendiline, or U0126 was added and cells were grown for 48 h or 72 h.

SNU-C1 cells = experiment: Proliferation assay (MTS), SNU-C1; assay type: cell-based; details: 72 h; wild type K-Ras
Experimental: as §3, §4

[6] = system: tumor cell lines expressing oncogenic mutant or wild-type K-Ras; experiment: Proliferation assay (MTS), panel of pancreatic, endometrial, lung and colon tumor cell lines; assay type: cell-based; details: 72 h, various concentrations
Experimental: as §3, §4

[7] = system: BHK cells stably expressing K-rasG12V; experiment: Signaling downstream of oncogenic K-ras by quantitative Western blotting; assay type: cell-based, hamster; details: other Ca2+ channel blockers and ionomycin
Experimental: FIG. 5: Illustrates that fendiline HCl inhibits Raf kinase activity and signaling downstream of oncogenic K-ras: BHK cells stably expressing K-rasG12V were treated with vehicle or fendiline HCl (6 μg/mL) for 48 h. (A) Raf kinase activity in membrane fractions prepared from the cells was measured in a coupled […] kinase assay. Data is shown as mean±SEM from 3 independent experiments. (B) ppMEK and ppERK in soluble protein fraction and pAkt levels in membrane protein fraction were measured by quantitative Western blotting. Actin and Akt were used as loading controls for soluble and membrane fractions, respectively. A representative blots are shown. Data is shown as mean±SEM from 3-4 independent experiments. Statistical significance was calculated using one way ANOVA and Student's T-test. (*=p<0.05), wherein experimentation was performed in accordance with principles described herein;
as §1
Quantification of intensities was performed using FluorChemQ software.

[8] = system: MAPK activation (pERK) in Hec1A cells; details: 48 h
Experimental: as §2

T1 sequence (P01112 166-189 limits assumed): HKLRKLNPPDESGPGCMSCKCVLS

**Q.** For `CN[C@@H]1C[C@H]2O[C@@](C)([C@@H]1OC)n1c3ccccc3c3c4c(c5c6ccccc6n2c5c31)C(=O)N[C@@H]4O` [UCN-01], which “localization of GFP-CTH” value ([1]; 250 ng/mL UCN-01, MDCK) is on record?
**A.** Its value is “causes mislocalization of both GFP-CTK and GFP-CTH”.

**Q.** And the “localization of GFP-CTK” value [2]?
**A.** Its value is “causes mislocalization of both GFP-CTK and GFP-CTH”.

**Q.** `CSCC[C@H](NC(=O)c1ccc(NC[C@@H](N)CS)cc1-c1ccccc1)C(=O)O` [FTI-276] was tested. Which “localization of GFP-CTH” value ([1]; 10 μM FTI-276, MDCK) did it give?
**A.** The value was “causes cytoplasmic localization of GFP-CTH”.

**Q.** For `COc1ccc([C@@H]2Sc3ccccc3N(CCN(C)C)C(=O)[C@@H]2OC(C)=O)cc1` [diltiazem], which “localization of GFP-K-rasG12V (fractionation)” value ([3]; other Ca2+ channel blockers, 10 μM) is on record?
**A.** The value was “None of the other Ca^2+ channel blockers altered the localization of GFP-K-rasG12V”.

**Q.** Which results are given for `CC(NCCC(c1ccccc1)c1ccccc1)c1ccccc1` (centres unmarked) [fendiline, 3,3-diphenyl-N-(1-phenylethyl)propan-1-amine]?
**A.** inhibition of cell proliferation, relative potency [4]: significantly more potent than U0126; inhibition of proliferation of CaCO-2 [5]: potently inhibited; inhibition of proliferation of SNU-C1 (SNU-C1 cells): unresponsive; inhibition of proliferation, oncogenic mutant versus wild-type K-Ras tumor cells [6]: more potently inhibited the proliferation of tumor cells that express oncogenic mutant K-Ras than tumor cells that express wild-type K-Ras

**Q.** How did the “localization of Ras proteins (fractionation)” value ([3]; ionomycin 1 μM, GFP-K-rasG12V or GFP-H-rasG12V) turn out when `C[C@H](CCC(=O)O)C[C@H](C)C[C@H](C)C(=O)/C=C(\O)[C@H](C)C[C@H](C)C/C=C/[C@@H](C)[C@@H](O)[C@@H](C)[C@@H](O)C[C@@H]1CC[C@@](C)([C@H]2CC[C@@](C)([C@@H](C)O)O2)O1` [Ionomycin, ionomycin] was run?
**A.** Its value is “did not significantly alter the localization of Ras proteins”.

**Q.** What about the “effect on Ras signaling” value [7] of the same compound?
**A.** Its value is “None of the other Ca^2+ channel blockers tested or ionomycin had any effect on Ras signaling”.

**Q.** How did the “inhibition of MAPK activation (pERK levels), relative potency” value [8] turn out when `N#CC(=C(/N)Sc1ccccc1N)/C(C#N)=C(\N)Sc1ccccc1N` [U0126] was run?
**A.** Its value is “much more potent than fendiline”.

— patent publication US9474730B2, “Methods and compositions for use with K-ras mediated disorders” (Board of Regents of the University of Texas System, priority 2012, dated 2016)
